Data as given in US8956824B2, “Methods for identifying allosteric modulators of ship polypeptides” (British Columbia Cancer Agency Branch, priority 2006, dated 2015).
“Also recorded” adds a separate entry of the source.

Legend:
SHIP1 enzyme = biological target: T1, SHIP1 enzyme (Mus musculus, UniProt Q9ES52); test: In vitro SHIP enzyme assay, wild-type SHIP1; assay type: biochemical; conditions: for SHIP1 enzyme activity in vitro (activation): FIG. 1A / 3B; for activation of wild-type SHIP1 enzyme by allosteric activators: PI-3,4-P2 20 μM, AQX-MN100 80 μg/mL=250 μM, 30 μM IP4, FIG. 4B
T1 construct: Full length, wild-type SHIP1 enzyme (wt); made in house; host or cells: 293T cells, transient transfection with pME18S-His-SHIP
T1 sequence (Q9ES52 1-1191): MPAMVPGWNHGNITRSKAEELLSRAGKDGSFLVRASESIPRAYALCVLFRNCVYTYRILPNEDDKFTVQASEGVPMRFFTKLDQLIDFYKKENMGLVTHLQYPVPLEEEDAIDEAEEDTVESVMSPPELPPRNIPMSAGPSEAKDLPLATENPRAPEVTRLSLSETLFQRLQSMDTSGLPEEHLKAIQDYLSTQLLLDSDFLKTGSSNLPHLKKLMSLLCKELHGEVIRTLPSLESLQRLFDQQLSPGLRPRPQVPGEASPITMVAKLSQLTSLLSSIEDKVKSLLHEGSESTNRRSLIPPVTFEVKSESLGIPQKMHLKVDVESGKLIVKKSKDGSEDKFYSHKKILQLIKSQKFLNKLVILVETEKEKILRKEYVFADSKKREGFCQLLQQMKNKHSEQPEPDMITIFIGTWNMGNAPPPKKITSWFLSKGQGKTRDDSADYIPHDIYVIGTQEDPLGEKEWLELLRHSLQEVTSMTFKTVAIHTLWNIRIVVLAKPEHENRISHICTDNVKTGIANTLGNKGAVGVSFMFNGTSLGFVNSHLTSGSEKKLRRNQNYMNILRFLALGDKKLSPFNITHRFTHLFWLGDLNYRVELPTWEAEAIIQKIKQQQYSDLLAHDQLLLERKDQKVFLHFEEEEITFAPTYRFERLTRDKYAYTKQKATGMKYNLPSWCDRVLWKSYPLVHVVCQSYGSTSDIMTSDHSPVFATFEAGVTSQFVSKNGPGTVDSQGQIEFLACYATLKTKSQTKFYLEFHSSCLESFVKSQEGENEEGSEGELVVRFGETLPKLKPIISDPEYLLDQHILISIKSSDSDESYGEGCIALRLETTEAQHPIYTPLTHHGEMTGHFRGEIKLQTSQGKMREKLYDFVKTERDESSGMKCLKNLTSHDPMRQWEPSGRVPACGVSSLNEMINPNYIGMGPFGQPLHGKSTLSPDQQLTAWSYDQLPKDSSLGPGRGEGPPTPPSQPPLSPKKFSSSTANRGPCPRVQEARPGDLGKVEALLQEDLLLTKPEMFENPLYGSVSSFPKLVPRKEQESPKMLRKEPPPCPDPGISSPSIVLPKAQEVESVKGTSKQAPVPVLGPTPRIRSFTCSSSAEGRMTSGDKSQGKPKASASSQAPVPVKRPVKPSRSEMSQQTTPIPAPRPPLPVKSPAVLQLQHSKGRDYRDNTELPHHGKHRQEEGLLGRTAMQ
Excerpt: Production of recombinant SHIP1 enzyme and SHIP1 C2 and PH domains: Recombinant, N-terminal His6 tagged SHIP1 enzyme was expressed in mammalian 293T cells by transient transfection with pME18S-His-SHIP plasmid and purified to >95% homogeneity by Nichelating bead chromatography (Qiagen, Mississauga, Ontario) as assessed by Coomassie Blue visualization of sodium dodecyl sulfate-polyacrylamide gel electrophoresis (SDS-PAGE) separated material. Recombinant SHIP1 C2 domain (amino acid residues 725 to 863) or SHIP1 PH domain (amino acid residues 984-1319) were expressed in E. coli transformed with a pET28C expression vector constructed as described herein. Cultures were induced overnight with 1 mM IPTG, and protein purified from the cell lysates by Ni-chelating bead chromatography was >95% pure by SDS-PAGE analysis.
In vitro SHIP enzyme assay. The SHIP enzyme assay was performed in 96-well microtitre plates with 10 ng of enzyme/well in a total volume of 25 μL of 20 mM Tris HCl, pH 7.5 and 10 mM MgCl2. […] The reaction was allowed to proceed for 20 min at 37° C. and the amount of inorganic phosphate released assessed by the addition of Malachite Green reagent followed by an absorbance measurement at 650 nm (15). SHIP2 enzyme was purchased from Echelon Biosciences (Salt Lake City, Utah) and an equivalent amount of inositol phosphatase activity was used in the in vitro enzyme assay. Enzyme data are expressed as the mean of triplicates+/−SEM. Experiments were performed at least 3 times.

LPS-induced plasma TNFα = test: Mouse septicemia model; assay type: in vivo; conditions: for plasma TNFα level after LPS challenge: oral, 30 min prior to IP 2 mg/kg LPS, blood 2 h later, AQX-016A 20 mg/kg
Excerpt: Mouse septicemia model. […] Blood was drawn 2 hrs later for determination of plasma TNFα by ELISA. Results are representative of 3 independent experiments.

Row | Molecule | enhancement of SHIP1 enzyme activity (SHIP1 enzyme; % change relative to vehicle control, 2 μM final concentration, FIGS. 8A-B) [%] | SHIP1 enzyme activity in vitro (activation) (SHIP1 enzyme) | activation of wild-type SHIP1 enzyme by allosteric activators (SHIP1 enzyme) | plasma TNFα level after LPS challenge (LPS-induced plasma TNFα) | activation of SHIP1 relative to Pelorol (SHIP1 enzyme; 40 μg/mL, FIG. 1A) [fold] | bioavailability (LPS-induced plasma TNFα; concluded from septicemia (oral) and cutaneous anaphylaxis (topical) models) | activation of wild-type SHIP1 enzyme by allosteric activators (SHIP1 enzyme; listed as PI(3,4)P2)
1 | Cc1cc(O)cc2c1[C@]1(C)CC[C@H]3C(C)(C)CCC[C@]3(C)[C@H]1C2 [AQX-MN100] | ~500 | enhanced SHIP1 enzyme activity in vitro; also recorded: activates SHIP enzyme activity in vitro | activated SHIP to the same extent; also recorded: enhanced | efficiently inhibited the LPS-induced elevation of plasma TNFα levels; also recorded: inhibits LPS-induced plasma TNFα levels in mice | – | – | –
2 | Cc1cc(O)c(O)c2c1[C@]1(C)CC[C@H]3C(C)(C)CCC[C@]3(C)[C@H]1C2 [AQX-016A] | – | increases SHIN enzyme activity in vitro and in vivo | – | reduced the level of TNFα to the same extent as the control | 3 | both orally and topically bioavailable | –
3 | phosphatidylinositol-3,4-bisphosphate [PI-3,4-P2, reference compound] | – | – | activated SHIP to the same extent as AQX-MN100 | – | – | – | enhanced
